Tests used:
Format in all cases: cell-based
[1] = test system: H1975 human NSCLC adenocarcinoma cells; assay: Cell proliferation assay, drug-resistant mutant ERBB1 (T790M/L858R); conditions: for Selectivity Ratio (Wild-type ERBB1/Mutant ERBB1) HEKn/H1975: ratio of GI50 HEKn/H1975; for GI50: Homo sapiens, NCI-H1975, 72 hrs treatment, class symbols; for Selectivity Ratio (Wild-type ERBB1/Mutant ERBB1) A431/H1975: ratio of GI50 A431/H1975
Description: (§1) The biological activity of a test compound was determined using cell proliferation assays. The activity against wild-type ERBB1 was determined using A431 human epidermoid carcinoma cells (ATCC) and human epidermal keratinocytes, neonatal, or HEKn cells (ATCC).
(§2) A431 cells were grown in DMEM (Invitrogen) supplemented with 10% FBS (Lonza), 1% penicillin-streptomycin, and 2 mM glutamine (Invitrogen). HEKn cells were grown in EPILIFE® (Invitrogen) supplemented with HKGS (Invitrogen). HCC827 and H1975 were cultured in RPMI1640 supplemented with 10% FBS (Lonza), 1% penicillin-streptomycin, and 2 mM glutamine (Invitrogen). Cells were maintained and propagated at 37° C. and 5% CO2 in a humidified cell culture incubator. Aliquots of cells from early passages were preserved for liquid nitrogen storage. Frozen vials of cells were thawed at 37° C. water bath. Cells were spun to remove freezing medium. The newly revived frozen cells were adapted in culture for 10 days before used for compound testing. Cells used in the assay were less than 20 subculture passages or 3 months in culture.
(§3) The test compounds were dissolved in dimethylsulfoxide (DMSO) and stored at −20° C. before testing. […] The cells were placed in a culture incubator overnight. Next day, test compounds in DMSO were added to the cells and placed back in the culture incubator for 72 hrs. In the meantime, the cell numbers at time zero of the compound treatment (T0) was measured by ENERCOUNT® (Codex BioSolutions). At the end of the compound treatment, the cell numbers were again measured by EnerCount as T72 values. The untreated controls (Ctrl) were cell numbers recorded from the 0.1% DMSO treatment. The percent growth inhibition by the test compound was calculated by the formula: (1−(T72−T0)/(Ctrl−T0))×100.
(§4) The results are summarized in Tables 1 and 2, wherein A represents a value no greater than 500 nM, B represents a value greater than 500 nM but no greater than 1 μM, C represents a value greater than 1 μM but no greater than 5 μM, and D represents a value greater than 5 μM; and wherein A′ represents a ratio of greater than 10, B′ represents a ratio of no greater than 10 but no less than 5, C′ represents a ratio of no greater than 5 but no less than 2, and D′ represents a ratio of no greater than 2.

[2] = test system: HCC827 human NSCLC adenocarcinoma cells; assay: Cell proliferation assay, mutant ERBB1 (exon 19 deletion); conditions: for GI50: Homo sapiens, HCC827, 72 hrs treatment; for Selectivity Ratio (Wild-type ERBB1/Mutant ERBB1) HEKn/HCC827: ratio of GI50 HEKn/HCC827; for Selectivity Ratio (Wild-type ERBB1/Mutant ERBB1) A431/HCC827: ratio of GI50 A431/HCC827
Description: as §1, §2, §3, §4

[3] = test system: human epidermal keratinocytes, neonatal, or HEKn cells; assay: Cell proliferation assay, wild-type ERBB1; conditions: Keratinocyte, 72 hrs treatment
Description: as §1, §2, §3, §4

[4] = test system: A431 human epidermoid carcinoma cells; assay: Cell proliferation assay, wild-type ERBB1; conditions: A-431, 72 hrs treatment, class symbols
Description: as §1, §2, §3, §4

Row | SMILES | Selectivity Ratio (Wild-type ERBB1/Mutant ERBB1) HEKn/H1975 [1] | GI50 ([2]; numeric values, unit inferred) | Selectivity Ratio (Wild-type ERBB1/Mutant ERBB1) HEKn/HCC827 [2] | GI50 ([3]; numeric values, unit inferred) | GI50 [1] | Selectivity Ratio (Wild-type ERBB1/Mutant ERBB1) A431/H1975 [1] | GI50 ([2]; class symbols) | Selectivity Ratio (Wild-type ERBB1/Mutant ERBB1) A431/HCC827 [2] | GI50 ([3]; class symbols) | GI50 [4]
1 | C=CC(=O)Nc1cccc(Nc2nc(Nc3ccc(N4CCN(C(C)=O)CC4)cc3OC)ncc2C(F)(F)F)c1 [CO-1686, reference compound] | A′ (A′ represents a ratio of greater than 10) | 32 nM | A′ (A′ represents a ratio of greater than 10) | 2500 nM | – | – | – | – | – | –
2 | C=CC(=O)N1CCCC[C@@H](n2c(NC(=O)c3ccnc(C)c3)nc3cccc(OC4CCN(CC)CC4)c32)C1 [Compound A1, (R)—N-(1-(1-Acryloylazepan-3-yl)-7-((1-ethylpiperidin-4-yl)oxy)-1H-benzo[d]imidazol-2-yl)-2-methylisonicotinamide] | A′ (A′ represents a ratio of greater than 10) | – | A′ (A′ represents a ratio of greater than 10) | – | < 500 nM | A′ (A′ represents a ratio of greater than 10) | < 500 nM | A′ (A′ represents a ratio of greater than 10) | 1000 to 5000 nM | < 500 nM
3 | C=CC(=O)N1CCCC[C@@H](n2c(NC(=O)c3ccnc(C)c3)nc3cccc(OC4CCN(C(C)=O)CC4)c32)C1 [Compound A2, (R)—N-(7-((1-acetylpiperidin-4-yl)oxy)-1-(1-acryloylazepan-3-yl)-1H-benzo[d]imidazol-2-yl)-2-methylisonicotinamide] | A′ (A′ represents a ratio of greater than 10) | – | A′ (A′ represents a ratio of greater than 10) | – | < 500 nM | B′ (B′ represents a ratio of no greater than 10 but no less than 5) | < 500 nM | A′ (A′ represents a ratio of greater than 10) | > 5000 nM | 500 to 1000 nM
4 | C=CC(=O)N1CCC(Oc2cccc3nc(NC(=O)c4ccnc(C)c4)n([C@@H]4CCCCN(C(=O)C=C)C4)c23)CC1 [Compound A3, (R)—N-(1-(1-acryloylazepan-3-yl)-7-((1-acryloylpiperidin-4-yl)oxy)-1H-benzo[d]imidazol-2-yl)-2-methylisonicotinamide] | A′ (A′ represents a ratio of greater than 10) | – | A′ (A′ represents a ratio of greater than 10) | – | < 500 nM | B′ (B′ represents a ratio of no greater than 10 but no less than 5) | < 500 nM | A′ (A′ represents a ratio of greater than 10) | 1000 to 5000 nM | > 5000 nM
5 | C=CC(=O)N1CCCC[C@@H](n2c(NC(=O)c3ccnc(C)c3)nc3cc(OC(F)(F)F)cc(Cl)c32)C1 [Compound A4, (R)—N-(1-(1-Acryloylazepan-3-yl)-7-chloro-5-(trifluoromethoxy)-1H-benzo[d]imidazol-2-yl)-2-methylisonicotinamide] | C′ (C′ represents a ratio of no greater than 5 but no less than 2) | – | A′ (A′ represents a ratio of greater than 10) | – | < 500 nM | C′ (C′ represents a ratio of no greater than 5 but no less than 2) | < 500 nM | A′ (A′ represents a ratio of greater than 10) | 1000 to 5000 nM | 1000 to 5000 nM
6 | Cc1cc(C(=O)Nc2nc3cc(OC(F)(F)F)cc(Cl)c3n2[C@@H]2CCCCN(C(=O)/C=C/CN(C)C)C2)ccn1 [Compound A5, (R,E)-N-(7-Chloro-1-(1-(4-(dimethylamino)but-2-enoyl)azepan-3-yl)-5-(trifluoromethoxy)-1H-benzo[d]imidazol-2-yl)-2-methylisonicotinamide] | A′ (A′ represents a ratio of greater than 10) | – | A′ (A′ represents a ratio of greater than 10) | – | < 500 nM | C′ (C′ represents a ratio of no greater than 5 but no less than 2) | < 500 nM | A′ (A′ represents a ratio of greater than 10) | 1000 to 5000 nM | 1000 to 5000 nM
